Measurements reported in BindingDB's records for doi:10.1021/acs.jmedchem.8b00629 (Ludwig-Maximilians-University Munich, 2018).

Experiments:
[1] = Inhibition of mouse GAT2 expressed in HEK293 cells assessed as reduction in [3H]GABA uptake preincubated for 25 mins followed by [3H]GABA addition measured after 4 mins by liquid scintillation counting analysis
[2] = Inhibition of mouse GAT3 expressed in HEK293 cells assessed as reduction in [3H]GABA uptake preincubated for 25 mins followed by [3H]GABA addition measured after 4 mins by liquid scintillation counting analysis

SMILES | IC50 [1] [µM] | IC50 [2] [µM]
O=C(O)[C@@H]1CCCN(CCC#Cc2cccc(/N=N/c3cccc4ccccc34)c2)C1 | > 100 | > 100
O=C(O)[C@@H]1CCCN(CCC#Cc2ccc(/N=N/c3cccc4ccccc34)cc2)C1 | > 100 | > 100
O=C(O)[C@@H]1CCCN(CCC#Cc2cccc(/N=N/c3ccccc3)c2)C1 | > 100 | > 100
O=C(O)[C@@H]1CCCN(CCC#Cc2ccc(/N=N/c3ccccc3)cc2)C1 | > 100 | > 100
